Assay results taken from patent US20100298758A1, “METHOD FOR NON-THERAPEUTIC OR THERAPEUTIC PHOTODYNAMIC SKIN TREATMENT” (priority 2007, published 2010).

Test system: cancer cells with high metabolism
Test: Fluorescence after administration of 5-ALA in actinic keratosis (FIG. 5)
Type: in vivo
Conditions: other investigations

SMILES: NCC(=O)CCC(=O)O [5-ALA, 5-aminolevulinic acid]
- fluorescence in cancer cells compared to normal cells: high selective fluorescence in cancer cells
